What was measured:
INS-1 cells = assay: Glucose-induced insulin secretion of INS-1 cells; assay type: cell-based, rat; settings: INS-1 cells pretreated with 100 nM dexamethasone
Procedure: Prior to the experiment INS-1 cells were treated in culture with dexamethasone, 100 nM, for 4 h. Cells were washed twice and preincubated in HEPES buffered salt solution containing (in mmol/l): 140 NaCl, 5.6 KCl, 1.2 MgCl2, 2.6 CaCl2, 0.5 glucose, 10 HEPES and 5 g/l bovine serum albumin, pH 7.4 at 37° C. Thereafter cells were incubated for 30 min at 37° C. in fresh solution containing the test substances at the appropriate concentrations. Insulin was measured by radioimmunoassay using rat insulin antiserum (Linco, Biotrend Chemikalien GmbH, Cologne, Germany), I^125-insulin (CIS Diagnostik GmbH, Dreieich, Germany) and rat insulin (Novo Nordisk, Mainz, Germany) as standard or by an Insulin Elisa kit (Mercodia, Uppsala, Sweden).
INS-1 cells (kindly provided by CB Wollheim, University of Geneva, Switzerland) derived from a rat insulinoma were cultured in HEPES-buffered RPMI 1640 supplemented with 10% fetal calf serum (Biochrom, Berlin, Germany), 1 mmol/l HEPES, 1 mmol/l Na pyruvate, 10 μmol/l β-mercaptoethanol (Sigma, Munich, Germany) and antibiotics as described elsewhere (Abel et al., 1996; Asfari et al., 1992). Cells were seeded at a cell density of 2.0-2.5 10^5 cells/ml in 24-well culture plates and cultured for 2 days prior to the experiment. Cells were washed twice with HEPES buffered salt solution containing (in mmol/l): 140 NaCl, 5.6 KCl, 1.2 MgCl2, 2.6 CaCl2, 0.5 glucose, 10 HEPES and 5 g/l bovine serum albumin, pH 7.4. and preincubated for 30 min at 37° C. […] Incubations were stopped on ice, medium removed and frozen at −20° C. until insulin released into the supernatant was measured by radioimmunoassay using rat insulin antiserum (Linco, Biotrend Chemikalien GmbH, Cologne, Germany), I^125-insulin (CIS Diagnostik GmbH, Dreieich, Germany) and rat insulin (Novo Nordisk, Mainz, Germany) as standard or an insulin Elisa kit (Mercodia, Uppsala, Sweden). Insulin content was measured after extraction with acid ethanol (1.5 (v/v) % HCl/75% ethanol) over night at 4° C.

Kv1.5 mRNA in INS cells = assay: Real time PCR of Kv1.5 mRNA in INS-1 cells; assay type: cell-based, rat; settings: 100 nM dexamethasone, within 4 hours
[1] = tested on: SGK1 protein in INS-1 cells; assay: Western blotting of SGK1 protein in INS-1 cells; assay type: cell-based, rat
Procedure: INS-1 cells were treated with 100 nM dexamethasone or vehicle (DMSO) in culture for the indicated periods of time.
Plots were incubated with antibodies against SGK1 (New England Biolabs, Beverly, Mass., USA). Bound antibody was visualized using a second antibody coupled to horse radish peroxidase.
Thereafter, culture medium was removed and cells were lysed in a solution containing 300 mM NaCl, 20 mM Tris HCl, pH 7.4, 1% (v/v) Triton X-100, 1% Sodiumdeoxycholate, 0.1% SDS, 2.5 mM EDTA, 10 μg/ml Pepstatin A, 10 μg/ml Aprotinin and 0.1 mM PMSF. Total cellular protein, 50 μg, quantified by Coomassie Blue G staining (Bradford dye assay, Biorad Laboratories GmbH, Munich, Germany) was subjected to SDS-PAGE (1%), and plotted onto a nitrocellulose membrane (Schleicher and Schuell, Dassel, Germany). Plots were incubated with antibodies against SGK1 (New England Biolabs, Beverly, Mass., USA). Bound antibody was visualized using a second antibody coupled to horse radish peroxidase.

[2] = target: nuclear glucocorticoid receptor (Mus musculus, UniProt P06537); settings: Lambillotte et al., 1997; cited from earlier work
[3] = tested on: SGK1 transcript levels in INS-1 cells; assay: Real time PCR of SGK1 mRNA in INS-1 cells; assay type: cell-based, rat; settings: with 100 nM dexamethasone
[4] = tested on: voltage gated outward current (Kv channels) in INS-1 cells; assay: Patch clamp measurement of whole cell outward current in INS-1 cells; assay type: cell-based, rat; settings: for 4-AP sensitive current: INS-1 cells after 4 hours 100 nM dexamethasone; for inhibition of outward current: untreated INS-1 cells
Procedure: Cells were treated prior to the experiment with 100 nm dexamethasone for 4 h. (2A) whole cell current was induced by 200 ms voltage pulses increasing by 10 mv steps from −70 mv to +50 mv. (2B) Sensitivity to 4-ap (0.1 and 1 mm) and tea (1 and 10 mm) was tested in cells before (black columns) and after dexamethasone treatment (white columns). Voltage pulses of 200 ms duration from −70 to 50 mv were applied. Shown are means±sem for the indicated number of experiments. * denotes significance (p<0.05) to current in control, non treated cells at the same inhibitor concentration. Ins-1 cells were cultured as described before (Abel et al., 1996; Asfari et al., 1992). The external patch clamp solution contained (in mmol/l): 140 NaCl, 5.6 KCl, 1.2 MgCl2, 2.6 CaCl2, 0.5 glucose and 10 HEPES, PH 7.4. The internal solution contained (in mmol/l): 30 KCL, 95 K^+-gluconate, 1 MgCl2, 1.2 NaH2PO4, 4.8 Na2HPO4, 5 Na2ATP, 1 Na3GTP, 5 mmol/l EGTA, PH 7.2. An Epc9 Patch Clamp Amplifier (Heka Electronic, Lambrecht, Germany) Was Used For Current Measurements.
INS-1 cells were cultured for 2-4 days on glass cover slips coated with poly-L-ornithine (10 mg/l Sigma, Munich, Germany) at appropriate cell densities (1.2×10^6 cells/ml). The cover slips were mounted in a bath chamber on the stage of an inverted microscope (IM, Zeiss, Jena, Germany). The cells were kept at room temperature or at 34° C. as indicated for each experiment and superfused with a solution containing (in mmol/l): 140 NaCl, 5.6 KCl, 1.2 MgCl2, 2.6 CaCl2, 0.5 glucose and 10 HEPES, pH 7.4. The patch clamp pipettes (Clark-Medical, Reading, Great Britain) with a resistance of 4-6 MΩ were pulled using a DMZ-universal puller (Zeitz, Augsburg, Germany). They were filled with an internal solution containing (in mmol/l): 30 KCl, 95 K^+-gluconate, 1 MgCl2, 1.2 NaH2PO4, 4.8 Na2HPO4, 5 Na2ATP, 1 Na3GTP, 5 mmol/l EGTA, pH 7.2. An EPC9 patch clamp amplifier (Heka Electronic, Lambrecht, Germany) was used for current measurements. Only stable current measurements, i.e. when currents reached at least 90% of control current after removal of the respective inhibitory drug, were used for analysis.

Chain of nuclear glucocorticoid receptor (P06537 whole entry): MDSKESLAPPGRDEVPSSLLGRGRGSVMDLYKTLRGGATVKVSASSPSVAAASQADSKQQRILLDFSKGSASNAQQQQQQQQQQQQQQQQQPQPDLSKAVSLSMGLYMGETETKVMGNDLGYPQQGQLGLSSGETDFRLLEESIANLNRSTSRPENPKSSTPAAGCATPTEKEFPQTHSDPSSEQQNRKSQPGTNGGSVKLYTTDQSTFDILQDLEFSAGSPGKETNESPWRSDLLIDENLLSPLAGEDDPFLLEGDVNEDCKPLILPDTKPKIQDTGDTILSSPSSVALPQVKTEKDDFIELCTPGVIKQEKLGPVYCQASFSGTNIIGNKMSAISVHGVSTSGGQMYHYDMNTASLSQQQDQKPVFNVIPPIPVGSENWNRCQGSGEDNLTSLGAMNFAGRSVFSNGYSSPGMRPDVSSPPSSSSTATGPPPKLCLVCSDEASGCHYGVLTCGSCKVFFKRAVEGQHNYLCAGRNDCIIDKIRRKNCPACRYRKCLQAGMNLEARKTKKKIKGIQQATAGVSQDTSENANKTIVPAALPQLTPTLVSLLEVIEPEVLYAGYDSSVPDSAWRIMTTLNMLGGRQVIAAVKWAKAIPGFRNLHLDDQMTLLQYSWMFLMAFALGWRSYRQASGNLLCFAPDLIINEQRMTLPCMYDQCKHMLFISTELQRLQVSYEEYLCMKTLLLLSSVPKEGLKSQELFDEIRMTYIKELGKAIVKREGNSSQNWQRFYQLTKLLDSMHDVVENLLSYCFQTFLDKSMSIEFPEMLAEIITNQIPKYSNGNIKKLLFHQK

Structure (SMILES): CC[N+](CC)(CC)CC [TEA]
- effect on dexamethasone-induced inhibition of insulin secretion (INS-1 cells): reversed

Structure (SMILES): C[C@@H]1C[C@H]2[C@@H]3CCC4=CC(=O)C=C[C@]4(C)[C@@]3(F)[C@@H](O)C[C@]2(C)[C@@]1(O)C(=O)CO [dexamethasone]
- increase of abundance of Kv1.5 mRNA (factor) (Kv1.5 mRNA in INS cells): approx. 10
- time until SGK1 protein / expression appears ([1]; 100 nM dexamethasone): ≤ 2 h
- inhibition at 0.1 µM (INS-1 cells; Rattus norvegicus, INS1): 62%

Structure (SMILES): CC#C[C@]1(O)CC[C@H]2[C@@H]3CCC4=CC(=O)CCC4=C3[C@@H](c3ccc(N(C)C)cc3)C[C@@]21C [RU486, mifepristone]
- effect on dexamethasone-induced inhibition of insulin secretion [2]: completely abolished
- effect on dexamethasone-induced SGK1 expression ([1]; RU486 at 1 μmol/l, with 100 nM dexamethasone): completely inhibited
- effect on dexamethasone-induced increase in SGK1 protein abundance ([1]; with 100 nM dexamethasone): fully reversed
- effect on dexamethasone-induced increase of SGK1 mRNA transcript levels [3]: completely abrogated

Structure (SMILES): Nc1ccncc1 [4-AP]
- 4-AP sensitive current ([4]; 0.1 mM 4-AP): 28%
- 4-AP sensitive current ([4]; 1 mM 4-AP): 40%
- inhibition of outward current ([4]; 0.1 mM 4-AP): 10%
- inhibition of outward current ([4]; 1 mM 4-AP): 28%
- effect on dexamethasone-induced inhibition of insulin secretion (INS-1 cells): reversed
